# According to BindingDB's records for doi:10.1016/j.bmcl.2009.07.083 (Bristol-Myers Squibb, 2009):
# Target: Potassium voltage-gated channel subfamily A member 5 (Homo sapiens, UniProt P22460)
# Assay: Inhibition of human Kv1.5 channel expressed in mouse L929 cells
# Sequence of Potassium voltage-gated channel subfamily A member 5 (P22460 whole entry): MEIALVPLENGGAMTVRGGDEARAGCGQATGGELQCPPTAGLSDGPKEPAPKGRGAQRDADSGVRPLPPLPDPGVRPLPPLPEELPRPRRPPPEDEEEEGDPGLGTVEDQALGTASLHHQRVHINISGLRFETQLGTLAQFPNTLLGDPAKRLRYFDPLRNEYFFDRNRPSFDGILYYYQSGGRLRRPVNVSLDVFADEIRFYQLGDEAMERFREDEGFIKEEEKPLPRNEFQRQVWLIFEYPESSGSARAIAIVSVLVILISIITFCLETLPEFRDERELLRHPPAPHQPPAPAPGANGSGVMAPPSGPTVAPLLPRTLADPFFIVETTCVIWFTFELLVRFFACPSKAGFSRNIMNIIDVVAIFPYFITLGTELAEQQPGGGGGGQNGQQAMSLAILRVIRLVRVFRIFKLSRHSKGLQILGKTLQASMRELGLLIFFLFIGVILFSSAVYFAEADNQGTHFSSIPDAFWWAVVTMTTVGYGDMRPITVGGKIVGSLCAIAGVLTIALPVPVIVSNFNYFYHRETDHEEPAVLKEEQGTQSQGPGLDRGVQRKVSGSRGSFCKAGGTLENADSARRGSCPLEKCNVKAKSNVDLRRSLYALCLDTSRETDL
row,SMILES,IC50
1,"CC1=Nc2ccnn2C(c2ccc(Cl)c(Cl)c2)C1c1ncc(-c2ccccc2)o1 (centres undefined) [2-(7-(3,4-dichlorophenyl)-5-methyl-4,7-dihydropyrazolo[1,5-a]pyrimidin-6-yl)-5-phenyloxazole]",> 1000 nM
2,"CC1=Nc2ccnn2C(c2ccc(Cl)c(Cl)c2)C1c1nc2cc(S(=O)(=O)Nc3ccccc3)ccc2n1C (centres undefined) [2-(7-(3,4-dichlorophenyl)-5-methyl-4,7-dihydropyrazolo[1,5-a]pyrimidin-6-yl)-1-methyl-N-phenyl-1H-benzo[d]imidazole-5-sulfonamide]",> 1000 nM
3,"CC1=Nc2ccnn2C(c2ccc(Cl)c(Cl)c2)C1c1nnc(-c2ccccc2)o1 (centres undefined) [2-(7-(3,4-dichlorophenyl)-5-methyl-4,7-dihydropyrazolo[1,5-a]pyrimidin-6-yl)-5-phenyl-1,3,4-oxadiazole]",> 1000 nM
4,"CCCCc1nnc(C2C(C)=Nc3ccnn3C2c2ccc(Cl)c(Cl)c2)o1 (centres undefined) [2-butyl-5-(7-(3,4-dichlorophenyl)-5-methyl-4,7-dihydropyrazolo[1,5-a]pyrimidin-6-yl)-1,3,4-oxadiazole]",> 1000 nM

# Other lines, results leading:
row,IC50,SMILES
1,> 1000 nM,"CC1=Nc2ccnn2C(c2ccc(Cl)c(Cl)c2)C1c1nc2cc(S(C)(=O)=O)ccc2n1C (centres undefined) [7-(3,4-dichlorophenyl)-5-methyl-6-(1-methyl-5-(methylsulfonyl)-1H-benzo[d]imidazol-2-yl)-4,7-dihydropyrazolo[1,5-a]pyrimidine]"
2,150 nM,"CC1=Nc2ccnn2C(c2ccc(Cl)c(Cl)c2)C1c1nc2c(C)cccc2[nH]1 (centres undefined) [7-(3,4-dichlorophenyl)-5-methyl-6-(7-methyl-1H-benzo[d]imidazol-2-yl)-4,7-dihydropyrazolo[1,5-a]pyrimidine]"
3,> 1000 nM,"CC(=O)Nc1ccc2c(c1)nc(C1C(C)=Nc3ccnn3C1c1ccc(Cl)c(Cl)c1)n2C (centres undefined) [N-(2-(7-(3,4-dichlorophenyl)-5-methyl-4,7-dihydropyrazolo[1,5-a]pyrimidin-6-yl)-1-methyl-1H-benzo[d]imidazol-5-yl)acetamide]"
4,150 nM,"CC1=Nc2ccnn2C(c2ccc(Cl)c(Cl)c2)C1c1nc2cccc(F)c2n1C (centres undefined) [7-(3,4-dichlorophenyl)-6-(7-fluoro-1-methyl-1H-benzo[d]imidazol-2-yl)-5-methyl-4,7-dihydropyrazolo[1,5-a]pyrimidine]"
5,200 nM,"CC1=Nc2ccnn2C(c2ccc(Cl)c(Cl)c2)C1c1nc2cc(C)ccc2n1C (centres undefined) [7-(3,4-dichlorophenyl)-6-(1,5-dimethyl-1H-benzo[d]imidazol-2-yl)-5-methyl-4,7-dihydropyrazolo[1,5-a]pyrimidine]"
